Laboratory results from US8263631B2, “Anti-cancer pharmaceutical compositions and methods for treating patients with cancer” (Daiichi Sankyo Company, Limited, priority 2006, dated 2012).
Marks after values point to notes of the source that are not given here.

What was measured:
[1] = system: human kidney cancer line SN12-PM6; test: In vivo anti-tumor activity against human kidney cancer (SN12-PM6 tumor-bearing nude mouse); conditions: 0.1 mL per 10 g orally, once a day, 5 times per week, day 10 to 56
Description: In the experiment, human kidney cancer line SN12-PM6 (provided by Professor Seiji Naito of Kyushu University), in which it was confirmed that no mouse pathogenic microorganism was detected by quarantine, was transplanted to a subcutaneous axillary portion of a nude mouse BALB/cA Jcl-nu (CLEA Japan, Inc.), to subculture a tumor. The tumor was cut into small pieces in a size of 5 mm, and transplanted to a right subcutaneous axillary portion of a BALE/cA Jcl-nu mouse by using a troker (CLEA Japan, Inc.). […] Subsequently, distilled water (Otsuka Pharmaceutical Factory, Inc.) was added so that the final concentrations of ethanol and cremophor became each 12.5%. […] Twice a week, the major axis and the minor axis of the transplanted tumor were measured using digital micrometer calipers (MAX-CAL MAX-15: Nihon Sokutei Kougu Kabusikikaisha), and tumor proliferation inhibitory activity was obtained from the following calculation formula and expressed as the tumor volume inhibition rate. […]
Evaluation of anti-tumor activity for each of the drug administration group was determined by the tumor volume inhibition rate. In addition, a statistical difference test was determined by conducting Students' t test with respect to the tumor volumes of the drug non-administration control group and the drug administration group 59 days after transplantation.

[2] = system: human colon cancer line WiDr; test: In vivo anti-tumor activity against human colon cancer cells (WiDr tumor-bearing nude mouse); conditions: once a day, 5 times per week
Description: In the experiment, human colon cancer line WiDr (purchased from American Type Culture Collection), in which it was confirmed that no mouse pathogenic microorganism was detected by quarantine, was transplanted to a subcutaneous axillary portion of a nude mouse BALB/cA Jcl-nu (CLEA Japan, Inc.), to subculture a tumor. The tumor was cut into small pieces of 5 mm size, and was transplanted to a right subcutaneous axillary portion of a BALB/cA Jcl-nu mouse by using a troker (CLEA Japan, Inc.). The required amounts of Compounds X and Y were each weighed and were dissolved in N,N-dimethylacetamide (DMA: Wako Pure Chemical Industries, Ltd.), and 5% Emulphor 620 (GAF Corporation)-saline (Otsuka Pharmaceutical Co., Ltd.) was then added to the mixtures in small amounts, so that the concentrations of the compounds were each adjusted to 0.2, 1 or 5 mg/mL. Here, DMA was made to have a final concentration of 2.5%. […] Twice a week, the major axis and the minor axis of the transplanted tumor were measured using digital micrometer calipers (MAX-CAL MAX-15: Nihon Sokutei Kougu Kabusiki Kaisha), and tumor proliferation inhibitory activity was obtained from the following calculation formula and expressed as the tumor volume inhibition rate. Average tumor volume in each test group (mm^3)=½×(minor axis)^2 (mm^2)×(major axis) (mm) Tumor volume inhibition rate (%)={1−(average tumor volume of drug administration group/average tumor volume of drug non-administration group)}×100
Evaluation of anti-tumor activity of each of the drug administration groups was determined by the tumor volume inhibition rate. In addition, a statistical difference test was determined by conducting Students' t test with respect to the tumor the volume of drug non-administration control group and the drug administration group 38 days after transplantation.

[3] = system: human non-small-cell lung cancer line A549; test: In vitro cell proliferation inhibitory activity, combination with VEGFR and Raf kinase inhibitor; assay type: cell-based; conditions: Compound X 10 μM alone, A549, 6 days
Description: Human non-small-cell lung cancer line A549 cells were inoculated on a 96-well plate at 5×10^2 cells/well, and at the same time, agents of various concentrations dissolved in DMSO were added so that the concentration of DMSO became 0.1%. […] After addition of the drugs, the cells were cultivated in the presence of 5% carbon dioxide at 37° C. for 6 days. Then, Cell Titer 96 Aqueous One Solution Reagent (Promega Corp.) was added at 40 μl/well each, and then absorbance A490 of each well was measured using MICROPLATE READER (Bio-Rad Laboratories, Inc.).

[4] = system: human leukemia cell line HL-60; test: Cell proliferation inhibitory activity against human leukemia cell (Cell Titer 96); assay type: cell-based; conditions: 5 days
[5] = system: human leukemia cell line THP-1; test: as above; assay type: cell-based; conditions: 5 days
[6] = system: MKN74, MKN28, ZR-75-1, SBC-1, AsPC-1, DU-145, ACHN, D341 Med, A-204, RD-ES, SW872, U266 cancer cell lines; test: Evaluation of cancer cell proliferation inhibitory activity (sulforhodamine B staining, absorbance A490); assay type: cell-based, human; conditions: 0.1, 1 or 10 μM (AsPC-1: 0.05, 0.5 or 5 μM), 7 days (U266: 4 days); all cancer cell lines, FIGS. 1-3
Description: Human gastric cancer cell line (MKN74, MKN28) purchased from Immuno-Biological Laboratories Co., Ltd., human breast cancer cell line (ZR-75-1), small-cell lung cancer line (SBC-1), pancreatic cancer cell line (AsPC-1), prostate cancer cell line (DU-145), kidney cancer cell line (ACHN), medulloblastoma line (D341 Med), human sarcoma cell line (rhabdomyosarcoma line A-204, Ewing's sarcoma line RD-ES, liposarcoma line SW872) and multiple myeloma line (U266) that were purchased from […] were used in the test. […]
To the control group was added only DMSO so that its concentration became 0.1%. […] 10 mM Tris was added at […] to each well in which cancer cells were immobilized and stained, and absorbance A490 of each well was measured using MICROPLATE READER Model 3550 (Bio-Rad Laboratories, Inc.). […]
In each of the graphs, the longitudinal axis represents the absorbance [%], and the horizontal axis represents the concentration of Compound X [μM].

[7] = system: human non-small-cell lung cancer line A549; test: In vivo anti-tumor activity against non-small-cell lung cancer (A549 tumor-bearing nude mouse); conditions: Compound X alone, 1 mg/mL, 0.1 mL per 10 g orally, once a day, 5 times per week, day 14 to 60
Description: In the experiment, human non-small-cell lung cancer line A549 (purchased from American Type Culture Collection), in which it was confirmed that no mouse pathogenic microorganism was detected by quarantine, was transplanted to a subcutaneous axillary portion of a nude mouse BALB/cA Jcl-nu (CLEA Japan, Inc.), to subculture a tumor. The tumor was cut into small pieces of 5 mm size, and transplanted to a right subcutaneous axillary portion of a BALB/cA Jcl-nu mouse by using a troker (CLEA Japan, Inc.). […] Twice a week, the major axis and the minor axis of the transplanted tumor were measured using digital micrometer calipers (MAX-CAL MAX-15: Nihon Sokutei Kougu Kabusiki Kaisha), and tumor proliferation inhibitory activity was obtained from the following calculation formula and expressed as the tumor volume inhibition rate. […]
Evaluation of anti-tumor activity for each of the drug administration groups was determined by the tumor volume inhibition rate. In addition, a statistical difference test was determined by conducting Students' t test with respect to tumor volume of the drug non-administration control group and the drug administration group 63 days after transplantation.

[8] = system: human non-small-cell lung cancer line A549; test: In vitro cell proliferation inhibitory activity, combination with EGFR inhibitor; conditions: Compound X 10 μM alone, A549, 7 days
Description: Human non-small-cell lung cancer line A549 cells (purchased from American Tissue Culture Collection) were cultured using 10% fetal bovine serum (Hyclone Laboratories, Inc.)-RPMI (Invitrogen Corporation). A549 cells were inoculated on a 96-well plate at 5×10^2 cells/well, and at the same time, the agents of various concentrations dissolved in DMSO were added so that the concentration of DMSO became 0.1%. […] After the addition of the drugs, cells were cultivated in the presence of 5% carbon dioxide at 37° C. for 7 days. Then, Cell Titer 96 Aqueous One Solution Reagent (Promega Corp.) was added at 40 μl/well each, followed by 2 hours of cultivation. Absorbance A490 of each well was measured using MICROPLATE READER (Bio-Rad Laboratories, Inc.).

[9] = 2 mg/kg orally, determined on Day 35, Exp. 2
[10] = 10 mg/kg orally, determined on Day 35, Exp. 2
[11] = 50 mg/kg orally, determined on Day 35, Exp. 1
[12] = 50 mg/kg orally, determined on Day 35, Exp. 2

| Compound | Tumor volume inhibition rate ([1]; Compound X alone, 0.3 mg/mL) [%] | Tumor volume inhibition rate [2, 9] | Tumor volume inhibition rate [2, 10] | Tumor volume inhibition rate [2, 11] | Tumor volume inhibition rate [2, 12] | Proliferation inhibition rate [3] [%] | HL-60 Proliferation inhibition rate ([4]; Compound X 10 μM) [%] | HL-60 Proliferation inhibition rate ([4]; Compound X 25 μM) | HL-60 Proliferation inhibition rate ([4]; Compound X 50 μM) | THP-1 Proliferation inhibition rate ([5]; Compound X 10 μM) [%] | THP-1 Proliferation inhibition rate ([5]; Compound X 25 μM) [%] | THP-1 Proliferation inhibition rate ([5]; Compound X 50 μM) | cancer cell proliferation inhibitory activity (absorbance % of DMSO control) [6] | Tumor volume inhibition rate [7] [%] | Cell proliferation inhibition rate [8] [%] | Tumor volume inhibition rate ([1]; sorafenib alone, 10 mg/mL) [%] |
| --- | --- | --- | --- | --- | --- | --- | --- | --- | --- | --- | --- | --- | --- | --- | --- | --- |
| Cc1cc(Oc2ccc3nc(COc4ccc(CC5SC(=O)NC5=O)cc4)n(C)c3c2)cc(C)c1N.Cl.Cl (centres unmarked) [Compound X, 5-(4-(6-(4-Amino-3,5-dimethyl-phenoxy)-1-methyl-1H-benzimidazol-2-ylmethoxy)-benzyl)-thiazolidine-2,4-dione.dihydrochloride] | 37 | 31* % | 35* % | 49* % | 38* % | 15 | 23 | 27* % | 45** % | 7 | 20 | 48** % | significant proliferation inhibitory activity | 33 | 12 |  |
| CC(C)Nc1cccc(Oc2ccc3nc(COc4ccc(CC5SC(=O)NC5=O)cc4)n(C)c3c2)c1.Cl.Cl (centres unmarked) [Compound Y, 5-(4-(6-(3-Isopropylamino-phenoxy)-1-methyl-1H-benzimidazol-2-ylmethoxy)-benzyl)-thiazolidine-2,4-dione.dihydrochloride] |  | 26* % | 32* % | 35* % | 40* % |  |  |  |  |  |  |  |  |  |  |  |
| CNC(=O)c1cc(Oc2ccc(NC(=O)Nc3ccc(Cl)c(C(F)(F)F)c3)cc2)ccn1 [Sorafenib, sorafenib, reference compound] |  |  |  |  |  |  |  |  |  |  |  |  |  |  |  | 43 |
